In PubChem BioAssay AID179 (DTP/NCI, 2004):
The source made the active and inactive calls.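 Rule for the calls: active = compounds giving half or more protection of infected cells from virus-caused growth loss, again on retest; inactive = the rest.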 Where a SMILES comes first, the peptide text is derived from it.

Test system: CEM cells HIV-1 protection, formazan growth assay
Assay: NCI AIDS Antiviral Assay
Conditions: for IC50: measured here: growth of uninfected CEM cells
How it was run: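 CEM (human) cells, HIV-1 infected vs uninfected, 5-point dosing, formazan growth read-out. Retest threshold 50% protection.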

| Structure (SMILES) | EC50 [µM] | IC50 [µM] | outcome |
| --- | --- | --- | --- |
| [N-]=[N+]=NC1OC(=O)C(Cl)=C1N=P(c1ccccc1)(c1ccccc1)c1ccccc1 (centres undefined) | > 69.2 | 7.94 |  |
| CN1C(=O)/C(=C2\SC(=O)N(CN3CCOCC3)C2=O)c2cc(Br)ccc21 | > 200 | 26.3 |  |
| CNC(=S)/C(C#N)=C(\N)N1CCCC1 | > 200 | > 200 |  |
| CCCCc1c2c(nc3c1CCc1cc4cc5c(nc4nc1-3)-c1nc3c(c(CCCC)c1CC5)CCC/C3=N/OC)/C(=N\OC)CCC2 | > 100 | 0.347 |  |
| COC(=O)/C=C/c1ccc2c(c1)CC1(Cc3ccccc3C1)C2 | > 200 | > 200 |  |
| COC(=O)c1nc(N)nc(C(=O)OC)c1C(=O)/C=C/c1ccccc1 | > 741 | 324 |  |
| Cn1c(=O)nc2n(-c3cccc(F)c3)c3ccccc3nc-2c1=O |  |  | inactive |
| CN(C)CCCCNc1c2c(nc3c(Cl)cccc13)CCC2 | > 794 | 16.6 |  |
| CC1(C)CCCC2(C)[C@@H]1CC[C@@]13CC(=O)[C@@](C)(CC[C@@H]21)C3 (some centres undefined) | > 91.2 | > 91.2 |  |
| CNc1nc2c(C)ccc3[nH]c(N(C)C)nc3c-2n1 | > 759 | 50.1 |  |
| Cc1c(C#N)c(N)n(C2OC(CO)C(O)C(O)C2O)c(=S)c1C#N (centres undefined) | > 200 | > 200 |  |
| C/C(CCO)=N\NC(N)=S | > 200 | > 200 |  |
| Cc1cccnc1/N=C/c1c(O)n(C)c(=O)[nH]c1=O | > 200 | > 200 |  |
| C=C1CCCCCCCCCCC12SCCC2CCCCSC (centres undefined) | > 200 | 120 |  |
| CCOC(=O)C(CCCl)C(=O)OCC | > 200 | > 200 |  |
| CC(=O)NC(C(=O)O)C(C)(C)SN=O (centres undefined) | > 1120 | 240 |  |
| Cc1onc(-c2c(Cl)cccc2Cl)c1C(=O)SC1=NC(C)N2C(SC(=O)c3c(-c4c(Cl)cccc4Cl)noc3C)=NC(C)N12 (centres undefined) | > 19.1 | 18.2 |  |
| NS(=O)(=O)c1ccccc1C(=O)N/N=C(\c1nc2ccc([N+](=O)[O-])cc2[nH]c1=O)C(O)c1ccc([N+](=O)[O-])cc1 (centres undefined) | > 120 | 107 |  |
| CC1C2Cc3ccc(O)cc3C1(C)CCN2CCC(=O)c1ccccc1 (centres undefined) | > 200 | 27.5 |  |
| CC1CC(C)(C)OC(c2ccco2)O1 (centres undefined) | > 200 | > 200 |  |
| Cc1ccc2cc(NC(=O)CBr)c3ccc(C)nc3c2n1.Cc1ccc2cc(NC(=O)CBr)c3ccc(C)nc3c2n1.O=C1OC(C(O)C[O-])C(O)=C1O.[Cu+] | > 12.6 | 3.02 |  |

| Structure (SMILES) | EC50 [µM] | IC50 [µM] | outcome |
| --- | --- | --- | --- |
| CCOC(=O)C(NC(=O)Nc1ccc(Cl)c(Cl)c1)C(F)(F)F (centres undefined) | > 200 | 141 |  |
| OC(c1ccccc1)C(F)(F)c1nc2ccccc2o1 (centres undefined) | > 200 | > 200 |  |
| COC(=O)[C@@]12CCCC(=O)[C@@H]1[C@H]1CCCC[C@H]12 | > 200 | 110 |  |
| O=c1ccn([C@H]2CSC[C@@H](CO)C2)c(=O)[nH]1 | > 1020 | > 1020 |  |
| CCOP(=O)(OCC)/C(C#N)=C/c1cccc(C#N)c1 | > 617 | 102 |  |
| CC1=NC(C(=O)O)Cc2c1[nH]c1ccccc21 (centres undefined) |  |  | inactive |
| NC(=O)Cn1c(=O)[nH]c(=O)c2[nH]cnc21 | > 174 | > 174 |  |
| O=C(O)CCC(O)=C1S(=O)(=O)OCCOS1(=O)=O | > 4470 | 331 |  |
| COC(=O)/C(=N\NC(C)(C)C)C(C(=O)OC)C(=O)C(=O)Nc1cc(Cl)ccc1Cl (centres undefined) |  |  | inactive |
| C[N+]12C=CC=C1C(N1CCCC1)c1scc(-c3ccc(Br)cc3)c12 (centres undefined) | > 200 | 10.7 |  |
| CCC(=O)N(C)[C@@H](C)C(=O)O[C@H]1CC(=O)N(C)c2cc(cc(OC)c2Cl)C/C(C)=C/C=C[C@@H](OC)[C@@]2(O)C[C@H](OC(=O)N2)[C@@H](C)[C@@H]2O[C@@]12C |  |  | inactive |
| COc1ccc(N=Nc2c(-c3c(OC)cc4occc4c3OC)[nH]c(=O)c(C#N)c2C)cc1 | > 200 | 120 |  |
| O=C(O)CCNCCCNCCC(=O)O | > 851 | > 851 |  |
| O=[N+]([O-])[O-].O=[N+]([O-])[O-].[Au].[Au].c1ccc([P-]c2ccccc2)cc1.c1ccc([P-]c2ccccc2)cc1 | > 4.27 | > 4.27 |  |
| S=C1N(c2ccc(Br)cc2)C2=Nc3ccccc3SC(=C2N=Nc2ccccc2)N1c1ccc(Cl)cc1 | > 37.2 | 17 |  |
| S=C=NC/C(Cl)=C/Cl | > 200 | 129 |  |
| CCOC(=O)C1CCC2c3[nH]c4ccccc4c3CCN2C1=O (centres undefined) | > 115 | > 115 |  |
| CC1=N[C@](C)(C2CC3C=CC2C3=O)COC1=O (some centres undefined) | > 562 | > 562 |  |
| COc1ccc(NS(=O)c2cccc(C)c2)cc1 (centres undefined) | > 200 | 11.2 |  |
| COc1ccc2nc3cccc([N+](=O)[O-])c3c(NC(C)CN(C)C)c2c1 (centres undefined) | > 20 | 2.29 |  |
| O=C1CC(c2ccccc2)=Nc2ccccc2N1 | > 151 | > 151 |  |

| Structure (SMILES) | EC50 [µM] | IC50 [µM] | outcome |
| --- | --- | --- | --- |
| O=c1[nH]cc(SSc2c[nH]c(=O)[nH]c2=O)c(=O)[nH]1 | 138 | > 200 |  |
| O=C(O)C(CS)Nc1c2ccccc2nc2ccccc12 (centres undefined) |  |  | inactive |
| O=C1CCCC(=O)N2c3ccc(cc3)CSCCSCc3ccc(cc3)N12 |  |  | inactive |
| O=c1cn[nH]c2c(Cl)cccc12 | > 589 | 355 |  |
| CCC(C)C(NC(=O)C(CC(C)C)NC(=O)CNC(=O)C(CC(N)=O)NC(=O)C(CC(=O)O)NC(=O)C(N)CC(C)C)C(=O)NC(CC(C)C)C(=O)NC(C)C(=O)NC(Cc1ccc(O)cc1)C(=O)O (centres undefined) (H-LDNGLILAY-OH; configuration not given here) | > 50.1 | > 50.1 |  |
| CS(C)=O | > 200 | > 200 |  |
| Clc1cc2c(c3ncccc13)OCN(Cc1ccccc1)C2 | > 200 | 1.02 |  |
| CCC1C(=O)OCc2ccccc21 (centres undefined) | > 200 | > 200 |  |
| CC(C)[C@H](NC(=O)OCc1ccccc1)C(=O)N[C@H](/C=C/C(=O)OC(C)(C)C)CO | > 200 | 97.7 |  |
| NC(=O)Cc1ncn(-c2ccccc2)n1 | > 200 | > 200 |  |
| CN(C)c1ccc(/C=C/C(=O)c2ccccc2)cc1 | > 39.8 | 14.8 |  |
| COC(=O)C1=CC(=O)C(C(=O)Nc2ccc(OC)cc2)C(c2ccccc2)O1 (centres undefined) | > 7.08 | > 7.08 |  |
| Fc1ccc(Oc2nc3ccccc3nc2-c2ccccc2)cc1 |  |  | inactive |
| CCCCn1c(-c2ccccc2)cs/c1=N\NC(=O)Cn1c(C)nc2ccccc21 | > 85.1 | 34.7 |  |
| Cc1c2cccc-2c(OCCO)cc2c1[nH]c1ccccc12 | > 200 | 2.88 |  |
| CC1(O)C(=O)N(Cc2ccccc2)c2ccccc21 (centres undefined) | > 141 | > 141 |  |
| CCN(CC)CC(=O)NC1c2ccccc2Sc2c(C)cccc21 (centres undefined) | > 148 | 60.3 |  |
| COc1cc2c(cc1OC)C1Cc3cc(OC)c(OC)cc3N1CC2 (centres undefined) | > 29.5 | 9.12 |  |
| CCOC(=O)C1(c2ccccc2)CCN(Cc2ccccc2)CC1 | > 100 | 52.5 |  |
| CCOC(=O)c1[nH]c(-c2[nH]c(-c3[nH]c(-c4[nH]c(C(=O)OCC)c(C)c4C(=O)OCC)c(C(=O)OCC)c3C)c(C)c2C(=O)OCC)c(C(=O)OCC)c1C | > 200 | > 200 |  |
| CCN1C(=O)CS/C1=N/NC(=O)C(O)(c1ccccc1)C1C=CC=CC1 (centres undefined) | > 200 | > 200 |  |
